Data published in patent publication US12336986B2, “Treatment and prevention of ocular neurodegenerative disorder” (The Jackson Laboratory, priority 2015, dated 2025).
Entries after “also recorded” stand apart in the source; their conditions may differ.

What was measured:
[1] = test system: retinal ganglion cells (RGCs); assay: RGC soma loss (RBPMS staining) in D2 glaucoma; format: in vivo, mouse; conditions: D2 mice; NAM 550 mg/kg/day or pyruvate 500 mg/kg/day
Description: For immunofluorescence staining, mice were euthanized by cervical dislocation, their eyes enucleated and placed in 4% PFA ON. Retinas were dissected and flat-mounted onto slides, permeabilized with 0.1% Triton-X for 15 mins, blocked with 2% BSA in PBS and stained ON at RT in primary antibody (see below for list of antibodies).
After primary antibody incubation, retinas were washed 5 times in PBS, stained for 4 hrs at RT with secondary antibody. Slides were then washed a further 5 times with PBS, stained with DAPI for 15 mins, mounted with fluoromount, coverslipped and sealed with nail-polish.
For retinal sections, eyes were cryoprotected in 30% sucrose ON, frozen in OCT and cryosectioned at 18 μm. Slides were warmed to room temperature and the procedure above was followed. Retinas were imaged on a Zeiss AxioObserver for low resolution counts. Retinal sections were imaged on a Leica SP8 far higher resolution images.

DBA/2J (D2) mice = assay: Pattern electroretinography (PERG) in D2 mice; format: in vivo, mouse; conditions: for visual function, PERG amplitude: D2 mice
Description: PERG was recorded subcutaneously from the snout as previously reported. Briefly: patterned stimuli (gratings of 0.05 cycles/degree, 100% contrast) generated on LED panels were presented at each eye separately with slight different frequencies around 1 Hz. Waveforms were retrieved using an asynchronous averaging method (Chou et al., Invest Ophthalmol Vis Sci 55, 2469-2475, 2014).
Mice were anaesthetized using ketamine/xylazine (Savinova et al., BMC Genet 2, 12, 2001) and body temperature maintained at 37° C. on a feedback-controlled heated stage monitored by rectal thermometer.

D2 retinas = assay: Retinal NFL and IPL thinning (Nissl staining) in D2 mice; format: in vivo, mouse; conditions: NAM or pyruvate in drinking water
Description: For Nissl staining, frozen sections were warmed to room temperature, placed in 1:1 alcohol:chloroform ON, and rehydrated through serial alcohol gradient. Slides were washed once in distilled water and stained for 15 mins in 0.1% cresyl violet in distilled water before being differentiated in 95% alcohol, dehydrated in 100% alcohol and cleared in xylene. Slides were prepared as above. Nissl stained retinal sections were imaged using a Nikon Eclipse E200.

[2] = cited from earlier work

## NC(=O)c1cccnc1 [NAM, nicotinamide]
[1]
  RGC soma loss (RBPMS): prevented; also recorded: protects from RGC soma loss; also recorded: prevent RGC soma loss
DBA/2J (D2) mice; D2 Wld^S mice, NAM 550 mg/kg/day
  PERG amplitude: additional recovery of PERG amplitude
DBA/2J (D2) mice; NAM^Hi 2,000 mg/kg/day
  visual function, PERG amplitude: protect
DBA/2J (D2) mice; NAM^Lo 550 mg/kg/day or pyruvate 500 mg/kg/day
  visual function, PERG amplitude: restored; also recorded: protect PERG even in aged mice
D2 retinas
  retinal NFL and IPL thinning (Nissl): prevented; also recorded: protects
[2]; humans, attributed to impurities in older preparations
  doses with an incidence of hepatotoxicity: > 4 grams NAM per day
[2]; survey of 6000 patients on high doses
  cases of jaundice reported: 3
